Experimental data published in patent US20070191330A1, “Polyhydroxylated aromatic compounds for the treatment of amyloidosis and alpha-synuclein fibril diseases” (Proteotech, Inc., priority 1999, published 2007).
Like-named read-outs stand apart in the source and are kept apart here.

Legend:
Assay type in all cases: biochemical
[1] = biological target: T1, Alzheimer's Aβ 1-42 amyloid fibrils (Homo sapiens, UniProt P05067); assay: Disassembly/disruption of pre-formed Aβ 1-42 fibrils, Thioflavin T fluorometry; details: for inhibition at 100 µg/mL: read-out: Fluorescence inhibition, %, at the Aβ 1-42:compound w/w ratio 1:1
T1 construct: 1 mg of Aβ 1-42 (Bachem Inc., Torrance, Calif., USA) was dissolved; purchased Bachem Inc., Torrance, Calif., USA
Protocol: For the first study, 1 mg of Aβ 1-42 (Bachem Inc., Torrance, Calif., USA) was dissolved in 1.0 ml of double distilled water (1 mg/ml solution). 25 μM of Aβ 1-42 was then incubated overnight (˜18 hours) at 37° C., in the absence or presence of 100 μg/ml of the following compounds: 1) EDTA (Sigma Chemical Company, St. Louis, Mo., USA), 2) myricetin (Acros, Somerville, N.J., USA), 3) exifone (Acros) 4) pyrogallol (Sigma), 5) tannic acid (Acros), 6) pyrocatechol (Acros), 7) quercetin (Sigma), 8) ellagic acid (Acros), 9) 1,2,4-benzenetriol (Acros), 10) 5-hydroxydopamine (Acros), 11) gallamide hydrate (Acros), 12) gallic acid (Sigma), 13) ethyl gallate (Acros), 14) quinic acid (Acros), 15) propyl gallate (Sigma), and 16) phloroglucide (Acros), each in the presence of 150 mM Tris HCl, 10 mM NaCl (pH 7.0) with 0.02% sodium azide. In this study, the A 1-42:compound weight ratio was 1:1. […]
Thioflavin T is known to bind to fibrillar amyloid proteins, and an increase in fluorescence correlates with an increase in amyloid fibril formation, whereas a decrease in fluorescence correlates with a decrease in amyloid fibrils due to disassembly and/or disruption. The Alzheimer's Aβ protein (1-42) when placed in solution, such as distilled water, tends to spontaneously form amyloid fibrils. Using this sensitive assay, any decreases or increases in fluorescence was previously shown to correlate with a decrease or increase in the amount of amyloid fibrils (see the documents cited above), allowing one to identify and quantitate the extent of potential inhibitors and/or enhancers of Alzheimer's Aβ 1-42 amyloid fibrils.
To assess the effects of each compound on potential disassembly/disruption of preformed Aβ 1-42 fibrils, 50 μl of Aβ 1-42 with or without test compounds (described above) were added to 1.2 ml of 100 μM Thioflavin T (Sigma) in 50 mM NaH2PO4 (pH 6.0) for fluorometry readings. […] Fluorescence emission at 482 nm was measured on a Turner instrument-model 450 fluorometer at an excitation wavelength of 450 nm. For each determination, the fluorometer was calibrated by zeroing in the presence of the Thioflavin T reagent alone, and by setting the 50 ng/ml riboflavin (Sigma Chemical Co., St. Louis, Mo.) in the Thioflavin T reagent to 1800 fluorescence units. All fluorescence determinations were based on these references and any fluorescence given off by any of the compounds in the presence of the Thioflavin T reagent was always subtracted from all pertinent readings.
For all fibrillogenesis studies utilizing Thioflavin T fluorometry, as disclosed herein, comparisons of amyloid protein in the presence or absence of test compounds were based on paired Student's t tests with data shown as the mean of triplicate measurements±standard deviation.

human amylin fibrils = biological target: T2, human amylin fibrils (Homo sapiens, UniProt P10997); assay: Congo red staining of amylin fibrils on slides; details: overnight incubation of amylin with compound, compared with amylin alone
T2 construct: This amyloid protein involved consists of a 37 amino acid protein known as islet amyloid polypeptide or amylin; purchased Bachem
T2 sequence (P10997 34-70 limits assumed): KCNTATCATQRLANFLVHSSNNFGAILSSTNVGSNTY
Protocol: Following Thioflavin T fluorometry readings as described in Example 1, 5 μl aliquots of amylin only, amylin+myricetin, amylin+exifone, and amylin+tannic acid were also taken, allowed to air dry overnight on gelatin-coated slides, and stained with Congo red as previously described (Castillo et al., Diabetes 47:612-620, 1998).

Aβ 1-40 amyloid fibrils = biological target: T3, Aβ 1-40 amyloid fibrils (Homo sapiens, UniProt P05067); assay: Dose-dependent disaggregation of fibrillized Aβ 1-40, Congo red-Aβ spectrophotometric assay; details: w/w 1:1, 100 μg/ml compound, 25 μM Aβ 1-40, overnight (~18 hours) at 37° C.
T3 construct: 1 mg of Aβ 1-40 (Bachem Inc., Torrance, Calif., USA; Lot # T-20824) was dissolved; purchased Bachem Inc., Torrance, Calif., USA
Protocol: In this study, a Congo red-Aβ spectrophotometric assay (Klunk et al., Anal. Biochem. 266:66-76, 1999) was modified to determine the effectiveness of polyhydroxylated aromatic compounds on the disaggregation of pre-formed Aβ 1-40 amyloid fibrils. For this assay, 1 mg of Aβ 1-40 (Bachem) was incubated for 4 days in distilled water at 37° C. to spontaneously produce amyloid fibrils. […] Following incubation, 50 μl of 360 μM Congo red (Sigma) in distilled water was then added to 250 μl of each incubation mixture, giving a final Aβ:Congo red molar ratio of 1:3. After 10 minutes, the absorbance at 405 nm (reference wavelength to account for the absorbance of Congo red alone at 540 nm) and 540 nm (sample absorbance where “sample” refers to Aβ alone, test compound alone, or Aβ plus test compound, all in the presence of Congo red) was determined using a Biorad Model 550 ELISA Plate Reader (Biorad, Hercules, Calif., USA). The absorbance at wavelength 405 nm was automatically subtracted by the ELISA plate reader from the absorbance at wavelength 540 nm (difference is referred to as A absorbance)(see Klunk et al. cited above). Therefore, the A absorbance reading at 540 nm was proportional to the amount of aggregated Aβ left in solution (Klunk et al.). […]
In this study, the potential dose-dependent effects of tannic acid and gallic acid on the disaggregation of fibrillized Aβ 1-40 was assessed. […]

[2] = Aβ 1-42:compound w/w 1:1, 100 μg/ml compound, 25 μM Aβ 1-42, overnight (~18 hours) at 37° C., mean of triplicate ± SD

T1 sequence (P05067 672-713): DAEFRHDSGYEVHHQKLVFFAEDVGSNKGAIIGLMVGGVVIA
T3 sequence (P05067 672-711): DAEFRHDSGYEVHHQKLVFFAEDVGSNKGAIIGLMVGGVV

Question: Which inhibition at 100 µg/mL [1, 2] does the source give for `CCOC(=O)c1cc(O)c(O)c(O)c1` [Ethyl gallate, ethyl gallate] here?
Answer: 49 ± 0.8%

Question: Which “Congo red staining of amylin fibrils (red/green birefringence under polarized light)” value (human amylin fibrils) does the source give for `O=C(OC[C@H]1O[C@@H](OC(=O)c2cc(O)c(O)c(OC(=O)c3cc(O)c(O)c(O)c3)c2)[C@H](OC(=O)c2cc(O)c(O)c(OC(=O)c3cc(O)c(O)c(O)c3)c2)[C@@H](OC(=O)c2cc(O)c(O)c(OC(=O)c3cc(O)c(O)c(O)c3)c2)[C@@H]1OC(=O)c1cc(O)c(O)c(OC(=O)c2cc(O)c(O)c(O)c2)c1)c1cc(O)c(O)c(OC(=O)c2cc(O)c(O)c(O)c2)c1` [Tannic acid, tannic acid] here?
Answer: marked decrease in Congo red staining

Question: What about the inhibition at 100 µg/mL ([1]; 18 h) of the same compound?
Answer: 77 ± 1.3%

Question: With `Oc1ccccc1O` [Pyrocatechol, pyrocatechol] as the compound, how does the inhibition at 100 µg/mL [1, 2] read?
Answer: 77 ± 2.6%

Question: How did the inhibition at 100 µg/mL [1, 2] turn out when `Oc1ccc(O)c(O)c1` [1,2,4-Benzenetriol, 1,2,4-benzenetriol] was run?
Answer: 71 ± 3.3%

Question: `NCCc1cc(O)c(O)c(O)c1` [5-Hydroxydopamine, 5-hydroxydopamine] was tested. Which inhibition at 100 µg/mL [1, 2] did it give?
Answer: 70 ± 1.1%

Question: Which results are given for `O=C(c1cc(O)c(O)c(O)c1)c1ccc(O)c(O)c1O` [Exifone, exifone]?
Answer: Congo red staining of amylin fibrils (red/green birefringence under polarized light) (human amylin fibrils): marked decrease in Congo red staining; inhibition at 100 µg/mL ([1]; 18 h): 93 ± 1.4%

Question: `CCCOC(=O)c1cc(O)c(O)c(O)c1` [Propyl gallate, propyl gallate] was tested. Which inhibition at 100 µg/mL [1, 2] did it give?
Answer: 29 ± 2.8%

Question: `O=c1c(O)c(-c2ccc(O)c(O)c2)oc2cc(O)cc(O)c12` [Quercetin, quercetin] was tested. Which “Fluorescence inhibition, %, at the Aβ 1-42:compound w/w ratio 1:1” value [1, 2] did it give?
Answer: 76 ± 0.6%

Question: Which inhibition at 100 µg/mL ([1]; 18 h) does the source give for `NC(=O)c1cc(O)c(O)c(O)c1` [Gallamide trihydrate, gallamide trihydrate] here?
Answer: 65 ± 12.3%

Question: For `O=C(O)[C@]1(O)C[C@@H](O)[C@@H](O)[C@H](O)C1` [Quinic acid, quinic acid], which inhibition at 100 µg/mL [1, 2] is on record?
Answer: 31 ± 9%

Question: `O=c1oc2c(O)c(O)cc3c(=O)oc4c(O)c(O)cc1c4c23` [Ellagic acid, ellagic acid] was tested. Which inhibition at 100 µg/mL [1, 2] did it give?
Answer: 74 ± 1.4%

Question: `Oc1cccc(O)c1O` [Pyrogallol, pyrogallol] was tested. Which inhibition at 100 µg/mL [1, 2] did it give?
Answer: 89 ± 6.7%

Question: Which “Disassembly/disruption of Aβ 1-42 amyloid fibrils (result in words)” value ([1]; 100 μg/ml, 25 μM Aβ 1-42, overnight (~18 hours) at 37° C., Thioflavin T fluorometry) does the source give for `O=C(O)CN(CCN(CC(=O)O)CC(=O)O)CC(=O)O` [EDTA, reference compound] here?
Answer: no significant disassembly/disruption

Question: What does the source list for `O=C(O)c1cc(O)c(O)c(O)c1` [Gallic acid, gallic acid]?
Answer: Decrease in absorbance, %, at the Aβ 1-40:compound w/w ratio 1:1 (Aβ 1-40 amyloid fibrils): 32 ± 4.8%; inhibition at 100 µg/mL [1, 2]: 57 ± 1.9%

Question: With `O=c1c(O)c(-c2cc(O)c(O)c(O)c2)oc2cc(O)cc(O)c12` [Myricetin, myricetin] as the compound, how does the “Congo red staining of amylin fibrils (red/green birefringence under polarized light)” value (human amylin fibrils) read?
Answer: marked decrease in Congo red staining

Question: And the inhibition at 100 µg/mL ([1]; 18 h)?
Answer: 94 ± 0.9%
